From patent publication US20040116513A1, “Method to alter the isomeric profile of trans fatty acid in ruminant meat and milk and to increase the concentration of $I(cis)-11 conjugated linoleic acid” (priority 2000, published 2004)

Tests used:
[1] = system: multiparous Holstein cows; assay: Animal study of dietary addition of vitamin E to an oilseed diet: milk production and milk fatty acid profile; assay type: in vivo, cow; settings: result in words
Description: The effect of Vitamin E addition in the diet on milk fat depression as well as on the biohydrogenation shift from trans-11 to trans-10 fatty acids classically observed upon feeding of high doses of unsaturated fatty acids, was tested in vivo with six multiparous Holstein cows that yielded more than 25 kg milk/d.
A Latin square experimental design consisting of three groups of two cows, three periods of four weeks and three diets (control, oilseed and oilseed+tocopheryl-acetate) was followed. For all groups, the mixed basal diet consisted, in dry matter terms, of 30% grass silage, 46% corn silage, 13% dried sugar beet pulp, 10% soybean meal and 1% mineral & vitamin mixture. The oilseed concentrate consisted of 50% barley, 25% rapeseed and 25% linseed, whereas its control counterpart was made of 50% barley, 25% rapeseed meal and 25% linseed meal.
The amounts of oilseeds concentrate offered were calculated to provide approximately 550 g/d of supplemental lipids. In addition, cows fed oilseed diet plus Vitamin E received 9600 IU of the vitamin per day, together with the oilseed concentrate.
Milk weights were automatically recorded daily at each milking. Milk samples were taken during the last week of each period and analysed for crude protein, fat and fatty acid profile. Quantification of the trans-C18:1 and CLA isomers was performed by gas chromatography as described in Griinari et al. (1998).

[2] = system: lactating dairy cow; assay: Vitamin E tolerated dose extrapolated to lactating dairy cow; assay type: in vivo; settings: 500 kg lactating dairy cow, extrapolated from chicks
Source text: Vitamin E has a toxic effect only at very high dosages. In growing chicks, daily intake of 1000 IU/kg of body weight is without negative effects. Corresponding dietary dose in a 500 kg lactating dairy cow would be 500 000 IU/d which far exceeds the effective dose range in this invention as described before.

[3] = system: growing chicks; settings: cited from earlier work

CC(=O)Oc1c(C)c(C)c2c(c1C)CCC(C)(CCC[C@H](C)CCC[C@H](C)CCCC(C)C)O2 (mixture of isomers) [vitamin E, all-rac-α-tocopheryl acetate]
CLA content (cis-9, trans-11 C18:2) of milk fat [1]: increased CLA content dramatically
level of trans-10 C18:1 in milk fat [1]: decreased to control levels
level of trans-11 C18:1 in milk fat [1]: increased significantly
levels of C4:0 to C16:0 saturated fatty acids in milk [1]: no major impact
levels of stearic acid (C18:0) in milk [1]: no major impact
milk fat yield [1]: complete recovery
shift in the ruminal biohydrogenation process (trans-11 to trans-10) [1]: completely abolished
total monounsaturated C18 (C18:1) fatty acids in milk [1]: no major impact
corresponding dietary dose without negative effects [2]: 500 000 IU/d
daily intake without negative effects [3]: 1000 IU/kg of body weight
